In US20030082135A1, “Pathway of RANTES-mediated chemokine synthesis in astrocytes and methods of use therefor” (priority 2001, published 2003):

What was measured:
[1] = test system: intracellular cAMP in astrocytes; test: Intracellular cAMP in astrocytes (EIA); assay type: cell-based, mouse
Procedure: FIG. 8 is a set of bar graphs showing that RANTES reduced intracellular cAMP accumulation in astrocytes. Panel A. Astrocytes were treated with the indicated doses of RANTES or TCA4 for 5 min. Intracellular cAMP was detected as described in Materials and Methods. Values represent the mean±S.E.M of triplicate experiments. Panel B. Kinetics of intracellular cAMP levels. Astrocytes were treated with 100 ng/ml RANTES for indicated times. Panel C. RANTES inhibited forskolin-induced intracellular cAMP accumulation. Astrocytes were pretreated with 1 μM forskolin for 1 h then stimulated with the indicated amount of RANTES for 5 min. Intracellular cAMP was determined by EIA. Values are presented as relative cAMP level and represent the mean±S.E.M. of triplicate experiments.
To further elucidate the RANTES-mediated signaling pathway in astrocytes, intracellular cAMP levels were evaluated following chemokine stimulation. Primary mouse astrocytes were incubated with the indicated dose of RANTES or the negative control chemokine, TCA4 for 5 min and monitored for cAMP levels. RANTES (100 ng/ml) decreased intracellular cAMP levels by 68% in a dose dependent fashion (FIG. 8A).

GFAP in astrocytes = test: Immunofluorescence of GFAP in astrocytes; assay type: cell-based, mouse; conditions: 100 ng/ml RANTES for 1-5 days
Procedure: Astrocytes associated with Alzheimer's Disease, MS and EAE lesions frequently display increased levels of the intracellular marker GFAP, an indicator of astrogliosis (Xu et al., 1999. Glia 25:390-403). To determine if chemokines could modulate GFAP expression astrocytes were treated with 100 ng/ml RANTES for 1-5 days and then examined for the intracellular marker GFAP by conventional immunofluorescence. Evidence for modulation of GFAP was not observed.

astrocytes = test: ELISA of KC, TNF-α and MCP-1 protein in astrocyte culture supernatants; assay type: cell-based, mouse; conditions: 48 h, 1.5 to 100 ng/ml tested
mouse thymocytes = test: RPA for chemokine/cytokine transcripts in thymocytes; assay type: cell-based; conditions: 100 ng/ml, 6 h
Procedure: To evaluate the cellular specificity of chemokine induction by RANTES-related chemokines, mouse thymocytes were treated with 2.5 μg/ml ConA, 100 ng/ml RANTES, or TCA4. After 6 h the cells were harvested for RNA extraction. […] Thus, the ability of RANTES-related chemokines to up-regulate chemokine/cytokine synthesis is not a generalized phenomenon in all cell types, but is specific for CNS cells such as astrocytes.

[2] = test system: CXCR4, CX3CR1, CCR1, CCR5 transcripts in astrocytes; test: RPA for chemokine receptor transcripts in astrocytes; assay type: cell-based, mouse; conditions: average, pooled results of 3-4 experiments
Procedure: RNA isolation and RNase protection assay (RPA). RNA was prepared as in Luo, Y., et al. 1999. J Immunol 163:3985. RNase protection assays (RPA) for chemokine message were conducted with multi-probe templates according to the manufacture's protocol (RiboQuant assay kit, BD-PharMingen, San Diego, Calif.). Gels were scanned and radioactive bands quantitated using a phosphoimager (Molecular Dynamics, Sunnyvale, Calif.). Levels of uniformly expressed housekeeping genes large ribosomal subunit protein 32-3A (L32) or glyceraldehyde-3-phosphate dehydrogenase (GAPDH), were used for normalization. The value of each chemokine receptor band divided by the value of the indicated housekeeping gene band in the same sample yielded the relative intensity. Normalized receptor expression represents the ratio of the relative intensity following treatment with chemokine versus the relative intensity of medium alone.
Treatment with the RANTES-related chemokines RANTES or eotaxin, or with TNF-α also found to down-regulate expression of CX3CR1 transcripts. In addition, CXCR4 mRNA levels were decreased, while the levels of CCR1 transcripts were elevated. In contrast, little or no regulation of CCR5 was noted. The pooled results of 3-4 experiments indicate eotaxin caused an average 60% decrease in CXCR4 (P less than 0.01) and a 70% decrease in CX3CR1 mRNA (P less than 0.02) (FIG. 8.B). The effects of RANTES stimulation were similar with an average 70 and 90% reduction in CXCR4 and CX3CR1 transcripts, respectively (P less than 0.01).

murine KC promoter = test: KC promoter luciferase reporter in transfected astrocytes; assay type: cell-based, mouse; conditions: 100 ng/ml RANTES, 24 h
Excerpt: Plasmids, transient transfection, and luciferase activity assay. The KC reporter plasmid was constructed by using a luciferase reporter gene pGL-3 basic vector (Promega, Madison, Wis.) driven by mouse KC promoter (−2878/+43). Wild-type p90RSK expression (WT pKH3) and dominant negative p90RSK expression (ΔΔ RSK pKH3) plasmids were obtained from Dr. John Blenis, Harvard Medical School. Astrocytes were transiently transfected with Lipofectamine 2000 reagent (Life Technologies, Gaithersburg, Md.) according to the manufacturer's protocol. After 24 h, the cells were stimulated with RANTES in absence or presence of the indicated inhibitor, and luciferase activity was determined after an additional 24 h, by the procedure according to the manufacturer (Promega, Madison, Wis.). Relative luciferase activity was normalized for cell lysate protein concentration as determined by BCA protein assay kit (Pierce, Rockford, Ill.). The Relative Fold Induction is the relative intensity of the experimental sample divided by the relative intensity of the medium control.
To establish whether RANTES up-regulation of chemokine production is mediated by activation of promoter elements, primary astrocyte cultures were transiently transfected with a murine KC promoter-luciferase construct, and reporter activity was monitored after RANTES treatment.

decrease in CX3CR1 mRNA [2]: 90% | decrease in CXCR4 mRNA [2]: 70% | stimulation of KC promoter-luciferase reporter activity (murine KC promoter): about four
Substance: RANTES
time within which intracellular cAMP was dramatically decreased ([1]; 100 ng/ml RANTES): ≤ 1 min | decrease of intracellular cAMP levels ([1]; 100 ng/ml, 5 min): 68% | effect on forskolin-induced cAMP accumulation ([1]; 1 μM forskolin 1 h, then RANTES 5 min): inhibited forskolin-induced cAMP accumulation in a dose dependent manner | modulation of GFAP (GFAP in astrocytes): not observed | concentration inducing KC protein (astrocytes): ≥ 10 ng/mL | RANTES and TNF-α RNA levels in thymocytes (mouse thymocytes): not to ber further enhanced
